Where only a bound is given, the exact number is not on record here.

Usually IC50 stands for the concentration that gives 50% inhibition.

Sequence of FASN enzyme (P49327 whole entry): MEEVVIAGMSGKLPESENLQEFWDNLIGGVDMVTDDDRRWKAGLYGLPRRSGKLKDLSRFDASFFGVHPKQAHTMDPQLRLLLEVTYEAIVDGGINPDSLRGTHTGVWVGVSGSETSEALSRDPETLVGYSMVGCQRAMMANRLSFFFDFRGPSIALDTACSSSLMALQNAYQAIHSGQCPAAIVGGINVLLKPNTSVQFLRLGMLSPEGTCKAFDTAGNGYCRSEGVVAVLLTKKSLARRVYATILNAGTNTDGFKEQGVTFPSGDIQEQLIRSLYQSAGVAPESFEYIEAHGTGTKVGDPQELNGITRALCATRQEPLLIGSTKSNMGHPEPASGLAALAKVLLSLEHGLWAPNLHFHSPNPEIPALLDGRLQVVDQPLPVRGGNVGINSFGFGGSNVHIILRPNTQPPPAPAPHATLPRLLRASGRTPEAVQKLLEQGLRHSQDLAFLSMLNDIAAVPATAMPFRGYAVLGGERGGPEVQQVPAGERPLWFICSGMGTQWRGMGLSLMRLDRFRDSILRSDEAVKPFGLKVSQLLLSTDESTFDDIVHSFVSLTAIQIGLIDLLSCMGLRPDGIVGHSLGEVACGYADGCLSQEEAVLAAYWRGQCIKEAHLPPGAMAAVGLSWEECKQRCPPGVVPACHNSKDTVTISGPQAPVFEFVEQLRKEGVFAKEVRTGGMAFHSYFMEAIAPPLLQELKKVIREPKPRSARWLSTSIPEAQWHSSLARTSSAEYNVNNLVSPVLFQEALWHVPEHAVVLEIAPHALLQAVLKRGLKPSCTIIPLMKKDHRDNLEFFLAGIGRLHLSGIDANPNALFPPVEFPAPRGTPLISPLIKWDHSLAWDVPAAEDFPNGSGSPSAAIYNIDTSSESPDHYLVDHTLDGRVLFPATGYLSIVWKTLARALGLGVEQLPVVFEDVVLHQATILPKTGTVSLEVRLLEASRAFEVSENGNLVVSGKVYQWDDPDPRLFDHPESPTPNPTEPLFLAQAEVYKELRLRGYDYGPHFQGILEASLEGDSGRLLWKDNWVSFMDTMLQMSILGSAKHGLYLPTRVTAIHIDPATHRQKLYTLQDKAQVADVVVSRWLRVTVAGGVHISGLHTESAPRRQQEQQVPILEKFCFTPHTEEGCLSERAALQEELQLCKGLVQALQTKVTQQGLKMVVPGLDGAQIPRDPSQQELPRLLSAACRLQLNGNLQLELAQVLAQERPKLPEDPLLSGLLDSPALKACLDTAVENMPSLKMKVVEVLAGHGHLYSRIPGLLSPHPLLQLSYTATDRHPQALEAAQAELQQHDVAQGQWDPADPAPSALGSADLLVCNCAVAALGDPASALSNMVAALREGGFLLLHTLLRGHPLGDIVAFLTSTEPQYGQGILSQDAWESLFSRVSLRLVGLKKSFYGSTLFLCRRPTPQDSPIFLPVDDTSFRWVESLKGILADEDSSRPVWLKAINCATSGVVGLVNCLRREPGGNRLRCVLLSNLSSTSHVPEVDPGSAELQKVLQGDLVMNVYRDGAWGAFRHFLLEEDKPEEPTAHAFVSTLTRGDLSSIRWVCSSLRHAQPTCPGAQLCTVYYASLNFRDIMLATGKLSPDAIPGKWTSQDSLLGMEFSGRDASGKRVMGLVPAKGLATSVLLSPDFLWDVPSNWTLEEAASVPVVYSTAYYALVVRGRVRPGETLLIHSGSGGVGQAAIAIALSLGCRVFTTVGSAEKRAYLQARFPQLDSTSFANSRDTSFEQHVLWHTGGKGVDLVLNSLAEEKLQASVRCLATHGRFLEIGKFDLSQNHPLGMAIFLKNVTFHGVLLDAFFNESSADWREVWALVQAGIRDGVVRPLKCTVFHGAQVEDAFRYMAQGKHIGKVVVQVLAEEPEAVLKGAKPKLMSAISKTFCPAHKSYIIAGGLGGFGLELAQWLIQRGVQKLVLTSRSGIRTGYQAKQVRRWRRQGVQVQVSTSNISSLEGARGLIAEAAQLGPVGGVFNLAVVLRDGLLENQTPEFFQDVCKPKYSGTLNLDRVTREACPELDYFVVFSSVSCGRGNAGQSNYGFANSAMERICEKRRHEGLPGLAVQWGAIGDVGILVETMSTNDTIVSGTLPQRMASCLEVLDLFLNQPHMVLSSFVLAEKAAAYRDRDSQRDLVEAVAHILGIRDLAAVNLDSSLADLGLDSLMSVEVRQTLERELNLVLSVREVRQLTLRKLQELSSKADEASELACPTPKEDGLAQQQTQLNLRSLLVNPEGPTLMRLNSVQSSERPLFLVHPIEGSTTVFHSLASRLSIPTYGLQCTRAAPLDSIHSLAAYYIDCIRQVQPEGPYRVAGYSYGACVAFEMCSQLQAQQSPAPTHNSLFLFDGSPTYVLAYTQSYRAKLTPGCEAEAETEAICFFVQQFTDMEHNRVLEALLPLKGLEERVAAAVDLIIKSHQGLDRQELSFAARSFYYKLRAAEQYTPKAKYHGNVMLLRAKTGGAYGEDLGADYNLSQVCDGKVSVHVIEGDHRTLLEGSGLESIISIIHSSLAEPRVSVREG

One test concerns the target FASN enzyme (Homo sapiens, UniProt P49327). In words: Enzymatic Assay for FASN Inhibitors. In kind it is biochemical.
Conditions: not given
The essentials: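 40 nM FASN preincubated with compound 60 min at 25° C in HEPES pH 7.3 buffer with 0.04% Triton X-100. Then 20 μM acetyl-CoA, 60 μM malonyl-CoA and 100 μM NADPH added for 90 min, quenched with CPM thiol probe; fluorescence 360/530 nm, IC50 by four-parameter fit.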
`O=C(c1ccc(-c2ccc3c(C4CC4)n[nH]c3c2)cc1)N1CCN(C(=O)C2(O)CC2)CC1` [1-{4-[4-(3-cyclopropyl-1H-indazol-6-yl)benzoyl]piperazine-1-carbonyl}cyclopropan-1-ol] registered a 50% inhibitory concentration (IC50) of less than 500 nM. On the same count and under the same terms, as for `CC1Cc2ccccc2CN1c1ccc(C(=O)N2CCN(C(=O)C3(O)CC3)CC2)cc1` (stereo not shown) [1-{4-[4-(3-methyl-1,2,3,4-tetrahydroisoquinolin-2-yl)benzoyl]piperazine-1-carbonyl}cyclopropan-1-ol], the figure is less than 500 nM.

Turning to `Cc1n[nH]c2cccc(-c3ccc(C(=O)N4CCN(C(=O)C5(O)CC5)CC4)cc3)c12` [1-{4-[4-(3-methyl-1H-indazol-4-yl)benzoyl]piperazine-1-carbonyl}cyclopropan-1-ol], the concentration for half-maximal inhibition (IC50) is less than 500 nM.

Compound `Cc1n[nH]c2cc(-c3ccc(C(=O)N4CCN(C(=O)C5(N)CC5)CC4)cc3)ccc12` [1-{4-[4-(3-methyl-1H-indazol-6-yl)benzoyl]piperazine-1-carbonyl}cyclopropan-1-amine] returned an IC50 of less than 500 nM. On to `Cc1n[nH]c2cc(-c3ccc(C(=O)N4CCN(C(=O)C5(O)CC5)CC4)cc3)ccc12` [1-{4-[4-(3-methyl-1H-indazol-6-yl)benzoyl]piperazine-1-carbonyl}cyclopropan-1-ol], for which the IC50 was less than 500 nM. `Cc1n[nH]c2c(-c3ccc(C(=O)N4CCN(C(=O)C5(O)CC5)CC4)cc3)cccc12` [1-{4-[4-(3-methyl-1H-indazol-7-yl)benzoyl]piperazine-1-carbonyl}cyclopropan-1-ol] registered a half-inhibitory concentration (IC50) of less than 500 nM. The same measure, in the same setting: the figure for `Cc1c2ccccc2nn1-c1ccc(C(=O)N2CCN(C(=O)C3(O)CC3)CC2)cc1` [1-{4-[4-(3-methyl-2H-indazol-2-yl)benzoyl]piperazine-1-carbonyl}cyclopropan-1-ol] is less than 500 nM. On the same count and under the same terms, as for `O=C(c1ccc(-c2ccc(Cl)cc2F)cc1F)N1CCN(C(=O)C2(O)CC2)CC1` [1-{4-[4-(4-chloro-2-fluorophenyl)-2-fluorobenzoyl]piperazine-1-carbonyl}cyclopropan-1-ol], the figure is less than 500 nM; as for `CC1(C)CN(C(=O)C2(O)CC2)CCN1C(=O)c1ccc(-c2ccc(Cl)cc2F)cc1` [1-{4-[4-(4-chloro-2-fluorophenyl)benzoyl]-3,3-dimethylpiperazine-1-carbonyl}cyclopropan-1-ol], less than 500 nM; as for `O=C(c1ccc(-c2ccc(Cl)cc2F)cc1)N1CCN(C(=O)C2(O)CC2)CC12CC2` [1-{4-[4-(4-chloro-2-fluorophenyl)benzoyl]-4,7-diazaspiro[2.5]octane-7-carbonyl}cyclopropan-1-ol], less than 500 nM. The same measure, in the same setting: the figure for `O=C(c1ccc(N2CCc3c(F)cccc32)cc1)N1CCN(C(=O)C2(O)CC2)CC1` [1-{4-[4-(4-fluoro-2,3-dihydro-1H-indol-1-yl)benzoyl]piperazine-1-carbonyl}cyclopropan-1-ol] is less than 500 nM; for `O=C(c1ccc(N2Cc3cccc(F)c3C2)cc1)N1CCN(C(=O)C2(O)CC2)CC1` [1-{4-[4-(4-fluoro-2,3-dihydro-1H-isoindol-2-yl)benzoyl]piperazine-1-carbonyl}cyclopropan-1-ol] it is less than 500 nM. The compound `NC1(C(=O)N2CCN(C(=O)c3ccc(-c4cc(Cl)ccc4F)cc3)CC2)CC1` [1-{4-[4-(5-chloro-2-fluorophenyl)benzoyl]piperazine-1-carbonyl}cyclopropan-1-amine] returned a half-maximal inhibitory concentration (IC50) of less than 500 nM. Same read-out and setting: the figure for `O=C(c1ccc(N2CCc3cc(F)ccc32)cc1)N1CCN(C(=O)C2(O)CC2)CC1` [1-{4-[4-(5-fluoro-2,3-dihydro-1H-indol-1-yl)benzoyl]piperazine-1-carbonyl}cyclopropan-1-ol] is less than 500 nM. The same measure, in the same setting: as for `O=C(c1ccc(N2Cc3ccc(F)cc3C2)cc1)N1CCN(C(=O)C2(O)CC2)CC1` [1-{4-[4-(5-fluoro-2,3-dihydro-1H-isoindol-2-yl)benzoyl]piperazine-1-carbonyl}cyclopropan-1-ol], the figure is less than 500 nM; as for `O=C(c1ccc(-c2nc3ccc(Cl)cc3o2)c(F)c1)N1CCN(C(=O)C2(O)CC2)CC1` [1-{4-[4-(6-chloro-1,3-benzoxazol-2-yl)-3-fluorobenzoyl]piperazine-1-carbonyl}cyclopropan-1-ol], less than 500 nM. Compound `O=C(c1ccc(-c2nc3ccc(F)cc3o2)cc1)N1CCN(C(=O)C2(O)CC2)CC12CC2` [1-{4-[4-(6-fluoro-1,3-benzoxazol-2-yl)benzoyl]-4,7-diazaspiro[2.5]octane-7-carbonyl}cyclopropan-1-ol] displayed a half-inhibitory concentration (IC50) of less than 500 nM. The compound `Cn1nnc2cc(-c3ccc(C(=O)N4CCN(C(=O)C5(O)CC5)CC4)cc3)c(F)cc21` [1-{4-[4-(6-fluoro-1-methyl-1H-1,2,3-benzotriazol-5-yl)benzoyl]piperazine-1-carbonyl}cyclopropan-1-ol] registered a half-inhibitory concentration (IC50) of less than 500 nM. On the same count and under the same terms, the figure for `O=C(c1ccc(-c2ncc3cc(F)ccc3n2)cc1)N1CCN(C(=O)C2(O)CC2)CC1` [1-{4-[4-(6-fluoroquinazolin-2-yl)benzoyl]piperazine-1-carbonyl}cyclopropan-1-ol] is less than 500 nM; for `COc1ccc2nc(-c3ccc(C(=O)N4CCN(C(=O)C5(O)CC5)CC4)cc3)oc2c1` [1-{4-[4-(6-methoxy-1,3-benzoxazol-2-yl)benzoyl]piperazine-1-carbonyl}cyclopropan-1-ol] it is less than 500 nM; for `O=C(c1ccc(-c2n[nH]c3c(F)cccc23)cc1)N1CCN(C(=O)C2(O)CC2)CC1` [1-{4-[4-(7-fluoro-1H-indazol-3-yl)benzoyl]piperazine-1-carbonyl}cyclopropan-1-ol] it is less than 500 nM.

Regarding `O=C(c1ccc(N2CCc3cccc(F)c32)cc1)N1CCN(C(=O)C2(O)CC2)CC1` [1-{4-[4-(7-fluoro-2,3-dihydro-1H-indol-1-yl)benzoyl]piperazine-1-carbonyl}cyclopropan-1-ol], the IC50 was less than 500 nM. On the same count and under the same terms, as for `COc1ccc2c(c1)CN(c1ccc(C(=O)N3CCN(C(=O)C4(O)CC4)CC3)cc1)CC2` [1-{4-[4-(7-methoxy-1,2,3,4-tetrahydroisoquinolin-2-yl)benzoyl]piperazine-1-carbonyl}cyclopropan-1-ol], the figure is less than 500 nM.

Staying with this test, now noted: FASN enzymatic assay; Table 2-2.
`CC(C)n1ncc2cc(-c3ccc(C(=O)N4CCN(C(=O)C5(O)CC5)CC4)cc3)ccc21` [1-{[4-({4-[1-(propan-2-yl)-1H-indazol-5-yl]phenyl}carbonyl)piperazin-1-yl]carbonyl}cyclopropan-1-ol] displayed a concentration for half-maximal inhibition (IC50) of 500 to 5000 nM. The same measure, in the same setting: as for `O=C(c1ccc(-c2ccc3nc(C(F)(F)F)cn3c2)cc1)N1CCN(C(=O)C2(O)CC2)CC1` [1-{[4-({4-[2-(trifluoromethyl)imidazo[1,2-a]pyridin-6-yl]phenyl}carbonyl)piperazin-1-yl]carbonyl}cyclopropan-1-ol], the figure is 500 to 5000 nM; as for `O=C(c1ccc(-c2cc(C(F)(F)F)ccc2Cl)cc1)N1CCN(C(=O)C2(O)CC2)CC1` [1-{[4-({4-[2-chloro-5-(trifluoromethyl)phenyl]phenyl}carbonyl)piperazin-1-yl]carbonyl}cyclopropan-1-ol], 500 to 5000 nM. `O=C(c1ccc(-c2cccc(OC(F)(F)F)c2F)cc1)N1CCN(C(=O)C2(O)CC2)CC1` [1-{[4-({4-[2-fluoro-3-(trifluoromethoxy)phenyl]phenyl}carbonyl)piperazin-1-yl]carbonyl}cyclopropan-1-ol] returned an IC50 of 500 to 5000 nM.

Compound `O=C(c1ccc(-c2cccc(C(F)(F)F)c2F)cc1)N1CCN(C(=O)C2(O)CC2)CC1` [1-{[4-({4-[2-fluoro-3-(trifluoromethyl)phenyl]phenyl}carbonyl)piperazin-1-yl]carbonyl}cyclopropan-1-ol] gave an IC50 of 500 to 5000 nM. The same measure, in the same setting: the figure for `O=C(c1ccc(-c2cc(F)cc(C(F)(F)F)c2)cc1)N1CCN(C(=O)C2(O)CC2)CC1` [1-{[4-({4-[3-fluoro-5-(trifluoromethyl)phenyl]phenyl}carbonyl)piperazin-1-yl]carbonyl}cyclopropan-1-ol] is 500 to 5000 nM. Consider `O=C(c1ccc(-c2ccc(Cl)cc2C(F)(F)F)cc1)N1CCN(C(=O)C2(O)CC2)CC1` [1-{[4-({4-[4-chloro-2-(trifluoromethyl)phenyl]phenyl}carbonyl)piperazin-1-yl]carbonyl}cyclopropan-1-ol], for which the IC50 is 500 to 5000 nM.

As for `O=C(c1ccc(-c2ccc(F)cc2C(F)(F)F)cc1)N1CCN(C(=O)C2(O)CC2)CC1` [1-{[4-({4-[4-fluoro-2-(trifluoromethyl)phenyl]phenyl}carbonyl)piperazin-1-yl]carbonyl}cyclopropan-1-ol], the concentration for half-maximal inhibition (IC50) was 500 to 5000 nM. On the same count and under the same terms, the figure for `O=C(c1ccc(-c2ccnc3cc(C(F)(F)F)ccc23)cc1)N1CCN(C(=O)C2(O)CC2)CC1` [1-{[4-({4-[7-(trifluoromethyl)quinolin-4-yl]phenyl}carbonyl)piperazin-1-yl]carbonyl}cyclopropan-1-ol] is 500 to 5000 nM.

Still in this test, the particulars now being: FASN enzymatic assay; Table 2-3.
On to `O=C(c1ccc(-c2cc(CO)ccc2Cl)cc1)N1CCN(C(=O)C2(O)CC2)CC1` [1-{[4-({4-[2-chloro-5-(hydroxymethyl)phenyl]phenyl}carbonyl)piperazin-1-yl]carbonyl}cyclopropan-1-ol], for which the IC50 is no less than 5000 nM. On to `CC(C)Oc1cccc(-c2ccc(C(=O)N3CCN(C(=O)C4(O)CC4)CC3)cc2)c1F` [1-{[4-({4-[2-fluoro-3-(propan-2-yloxy)phenyl]phenyl}carbonyl)piperazin-1-yl]carbonyl}cyclopropan-1-ol], for which the half-inhibitory concentration (IC50) is no less than 5000 nM. Still for that read-out and setting: as for `CC(C)Oc1ccc(Cl)cc1-c1ccc(C(=O)N2CCN(C(=O)C3(O)CC3)CC2)cc1` [1-{[4-({4-[5-chloro-2-(propan-2-yloxy)phenyl]phenyl}carbonyl)piperazin-1-yl]carbonyl}cyclopropan-1-ol], the figure is no less than 5000 nM. On the same count and under the same terms, as for `O=C(c1ccc(-c2ccc(C(F)(F)F)nc2)cc1)N1CCN(C(=O)C2(O)CC2)CC1` [1-{[4-({4-[6-(trifluoromethyl)pyridin-3-yl]phenyl}carbonyl)piperazin-1-yl]carbonyl}cyclopropan-1-ol], the figure is no less than 5000 nM. The same measure, in the same setting: the figure for `O=C(c1cn2cc(-c3ccccc3)ccc2n1)N1CCN(C(=O)C2(O)CC2)CC1` [1-{[4-({6-phenylimidazo[1,2-a]pyridin-2-yl}carbonyl)piperazin-1-yl]carbonyl}cyclopropan-1-ol] is no less than 5000 nM.

The values are drawn from patent US10457655B2, “Compounds and compositions for inhibition of FASN” (FORMA Therapeutics, Inc., priority 2013, dated 2019).
